# Marks after values point to notes of the source that are not given here.
# System: rats
# Experiment: 28-day repeated dose study in rats with mass spectrometry-based plasma metabolite profiling (GC-MS, LC-MS, SPE-LC-MS); treatment ratios versus control
# Conditions: plasma; for Choline plasmalogen No 02 (putative), treatment ratio versus control / Lysophosphatidylcholine (C17:0), treatment ratio versus control / TAG (C42:9) (DAG-Fragment) (putative), treatment ratio versus control / Lyso PE (C22:0) (putative), treatment ratio versus control: male rats, Table 11b alpha 2 u globulin-nephropathy
# [1] = day 7, high doses except for 1,1,2,2-tetrachloroethane
# [2] = day 14, high doses except for 1,1,2,2-tetrachloroethane
# [3] = day 28, high doses except for 1,1,2,2-tetrachloroethane
# [4] = female rats, day 28, high dose, Table 5a tubular necrosis
# [5] = female rats, day 28, high dose, Table 5b tubular necrosis
smiles,measurement,setting,value
"ClC(Cl)C(Cl)Cl [1,1,2,2-Tetrachloroethane]",3-Hydroxyindole (ratio treated vs control),"m7: male rats, day 7",1.39
same,"4-Hydroxysphinganine (t18:0, Phytosphingosine), total (ratio treated vs control)","m7: male rats, day 7",2.03
same,Glucuronic acid (ratio treated vs control),"m7: male rats, day 7",3.97
same,Glutamate (ratio treated vs control),"m7: male rats, day 7",2.31
same,Nervonic acid (C24:cis[15]1) (ratio treated vs control),"m7: male rats, day 7",1.09
same,Oleic acid (C18:cis[9]1) (ratio treated vs control),"m7: male rats, day 7",1.11
same,Ornithine (ratio treated vs control),"m7: male rats, day 7",2.10
same,Pantothenic acid (ratio treated vs control),"m7: male rats, day 7",4.46
same,"Phosphatidylcholine (C18:0, C18:1) (ratio treated vs control)","m7: male rats, day 7",1.48
same,Pseudouridine (ratio treated vs control),"m7: male rats, day 7",1.17
same,"Sphingomyelin (d18:1, C16:0) (ratio treated vs control)","m7: male rats, day 7",1.65
same,"Sphingomyelin (d18:2, C18:0) (ratio treated vs control)","m7: male rats, day 7",1.22
same,Xylitol (ratio treated vs control),"m7: male rats, day 7",12.21
same,"dihomo-gamma-Linolenic acid (C20:cis[8,11,14]3) (ratio treated vs control)","m7: male rats, day 7",2.56
same,3-Hydroxyindole (ratio treated vs control),"m14: male rats, day 14",2.05
same,"4-Hydroxysphinganine (t18:0, Phytosphingosine), total (ratio treated vs control)","m14: male rats, day 14",2.04
same,Glucuronic acid (ratio treated vs control),"m14: male rats, day 14",1.20
same,Glutamate (ratio treated vs control),"m14: male rats, day 14",1.80
same,Nervonic acid (C24:cis[15]1) (ratio treated vs control),"m14: male rats, day 14",0.96
same,Oleic acid (C18:cis[9]1) (ratio treated vs control),"m14: male rats, day 14",1.18
same,Ornithine (ratio treated vs control),"m14: male rats, day 14",2.38
same,Pantothenic acid (ratio treated vs control),"m14: male rats, day 14",4.32
same,"Phosphatidylcholine (C18:0, C18:1) (ratio treated vs control)","m14: male rats, day 14",1.21
same,Pseudouridine (ratio treated vs control),"m14: male rats, day 14",1.51
same,"Sphingomyelin (d18:1, C16:0) (ratio treated vs control)","m14: male rats, day 14",1.34
same,"Sphingomyelin (d18:2, C18:0) (ratio treated vs control)","m14: male rats, day 14",0.93
same,Xylitol (ratio treated vs control),"m14: male rats, day 14",10.32
same,"dihomo-gamma-Linolenic acid (C20:cis[8,11,14]3) (ratio treated vs control)","m14: male rats, day 14",3.40
same,3-Hydroxyindole (ratio treated vs control),"m28: male rats, day 28",2.05
same,"4-Hydroxysphinganine (t18:0, Phytosphingosine), total (ratio treated vs control)","m28: male rats, day 28",2.04
same,Glucuronic acid (ratio treated vs control),"m28: male rats, day 28",1.20
same,Glutamate (ratio treated vs control),"m28: male rats, day 28",1.80
same,Nervonic acid (C24:cis[15]1) (ratio treated vs control),"m28: male rats, day 28",0.96
same,Oleic acid (C18:cis[9]1) (ratio treated vs control),"m28: male rats, day 28",1.18
same,Ornithine (ratio treated vs control),"m28: male rats, day 28",2.38
same,Pantothenic acid (ratio treated vs control),"m28: male rats, day 28",4.32
same,"Phosphatidylcholine (C18:0, C18:1) (ratio treated vs control)","m28: male rats, day 28",1.21
same,Pseudouridine (ratio treated vs control),"m28: male rats, day 28",1.51
same,"Sphingomyelin (d18:1, C16:0) (ratio treated vs control)","m28: male rats, day 28",1.34
same,"Sphingomyelin (d18:2, C18:0) (ratio treated vs control)","m28: male rats, day 28",0.93
same,Xylitol (ratio treated vs control),"m28: male rats, day 28",10.32
same,"dihomo-gamma-Linolenic acid (C20:cis[8,11,14]3) (ratio treated vs control)","m28: male rats, day 28",3.40
same,"Choline plasmalogen No 02 (putative), treatment ratio versus control",[1],1.04
same,"Lysophosphatidylcholine (C17:0), treatment ratio versus control",[1],0.63
same,"TAG (C42:9) (DAG-Fragment) (putative), treatment ratio versus control",[1],0.76
same,"Choline plasmalogen No 02 (putative), treatment ratio versus control",[2],1.13
same,"Lysophosphatidylcholine (C17:0), treatment ratio versus control",[2],0.89
same,"TAG (C42:9) (DAG-Fragment) (putative), treatment ratio versus control",[2],0.72
same,"Choline plasmalogen No 02 (putative), treatment ratio versus control",[3],1.13
same,"Lysophosphatidylcholine (C17:0), treatment ratio versus control",[3],0.89
same,"TAG (C42:9) (DAG-Fragment) (putative), treatment ratio versus control",[3],0.72
"CC(C)CC(C)(C)C [2,2,4-Trimethylpentane, 2,2,4-trimethylpentane]",3-Hydroxyindole (ratio treated vs control),"m7: male rats, day 7",1.92
same,"4-Hydroxysphinganine (t18:0, Phytosphingosine), total (ratio treated vs control)","m7: male rats, day 7",1.46
same,Glucuronic acid (ratio treated vs control),"m7: male rats, day 7",3.88
same,Glutamate (ratio treated vs control),"m7: male rats, day 7",1.57
same,Nervonic acid (C24:cis[15]1) (ratio treated vs control),"m7: male rats, day 7",1.60
same,Oleic acid (C18:cis[9]1) (ratio treated vs control),"m7: male rats, day 7",2.10
same,Ornithine (ratio treated vs control),"m7: male rats, day 7",1.12
same,Pantothenic acid (ratio treated vs control),"m7: male rats, day 7",2.59
same,"Phosphatidylcholine (C18:0, C18:1) (ratio treated vs control)","m7: male rats, day 7",1.35
same,Pseudouridine (ratio treated vs control),"m7: male rats, day 7",1.23
same,"Sphingomyelin (d18:1, C16:0) (ratio treated vs control)","m7: male rats, day 7",1.62
same,"Sphingomyelin (d18:2, C18:0) (ratio treated vs control)","m7: male rats, day 7",1.35
same,Xylitol (ratio treated vs control),"m7: male rats, day 7",1.65
same,"dihomo-gamma-Linolenic acid (C20:cis[8,11,14]3) (ratio treated vs control)","m7: male rats, day 7",2.42
same,3-Hydroxyindole (ratio treated vs control),"m14: male rats, day 14",2.88
same,"4-Hydroxysphinganine (t18:0, Phytosphingosine), total (ratio treated vs control)","m14: male rats, day 14",1.34
same,Glucuronic acid (ratio treated vs control),"m14: male rats, day 14",3.87
same,Glutamate (ratio treated vs control),"m14: male rats, day 14",1.44
same,Nervonic acid (C24:cis[15]1) (ratio treated vs control),"m14: male rats, day 14",1.38
same,Oleic acid (C18:cis[9]1) (ratio treated vs control),"m14: male rats, day 14",2.37
same,Ornithine (ratio treated vs control),"m14: male rats, day 14",1.23
same,Pantothenic acid (ratio treated vs control),"m14: male rats, day 14",3.07
same,"Phosphatidylcholine (C18:0, C18:1) (ratio treated vs control)","m14: male rats, day 14",1.34
same,Pseudouridine (ratio treated vs control),"m14: male rats, day 14",1.31
same,"Sphingomyelin (d18:1, C16:0) (ratio treated vs control)","m14: male rats, day 14",1.59
same,"Sphingomyelin (d18:2, C18:0) (ratio treated vs control)","m14: male rats, day 14",1.28
same,Xylitol (ratio treated vs control),"m14: male rats, day 14",1.33
same,"dihomo-gamma-Linolenic acid (C20:cis[8,11,14]3) (ratio treated vs control)","m14: male rats, day 14",2.06
same,3-Hydroxyindole (ratio treated vs control),"m28: male rats, day 28",2.30
same,"4-Hydroxysphinganine (t18:0, Phytosphingosine), total (ratio treated vs control)","m28: male rats, day 28",1.26
same,Glucuronic acid (ratio treated vs control),"m28: male rats, day 28",3.46
same,Glutamate (ratio treated vs control),"m28: male rats, day 28",1.74
same,Nervonic acid (C24:cis[15]1) (ratio treated vs control),"m28: male rats, day 28",1.22
same,Oleic acid (C18:cis[9]1) (ratio treated vs control),"m28: male rats, day 28",2.97
same,Ornithine (ratio treated vs control),"m28: male rats, day 28",1.23
same,Pantothenic acid (ratio treated vs control),"m28: male rats, day 28",3.03
same,"Phosphatidylcholine (C18:0, C18:1) (ratio treated vs control)","m28: male rats, day 28",1.35
same,Pseudouridine (ratio treated vs control),"m28: male rats, day 28",1.28
same,"Sphingomyelin (d18:1, C16:0) (ratio treated vs control)","m28: male rats, day 28",1.54
same,"Sphingomyelin (d18:2, C18:0) (ratio treated vs control)","m28: male rats, day 28",1.23
same,Xylitol (ratio treated vs control),"m28: male rats, day 28",1.68
same,"dihomo-gamma-Linolenic acid (C20:cis[8,11,14]3) (ratio treated vs control)","m28: male rats, day 28",2.77
same,"Choline plasmalogen No 02 (putative), treatment ratio versus control",[1],0.72
same,"Lyso PE (C22:0) (putative), treatment ratio versus control",[1],0.54
same,"Lysophosphatidylcholine (C17:0), treatment ratio versus control",[1],0.72
same,"TAG (C42:9) (DAG-Fragment) (putative), treatment ratio versus control",[1],0.67
same,"Choline plasmalogen No 02 (putative), treatment ratio versus control",[2],0.73
same,"Lyso PE (C22:0) (putative), treatment ratio versus control",[2],0.49
same,"Lysophosphatidylcholine (C17:0), treatment ratio versus control",[2],0.73
same,"TAG (C42:9) (DAG-Fragment) (putative), treatment ratio versus control",[2],0.64
same,"Choline plasmalogen No 02 (putative), treatment ratio versus control",[3],0.81
same,"Lyso PE (C22:0) (putative), treatment ratio versus control",[3],0.45
same,"Lysophosphatidylcholine (C17:0), treatment ratio versus control",[3],0.80
same,"TAG (C42:9) (DAG-Fragment) (putative), treatment ratio versus control",[3],0.76
C[C@@H]1[C@H](O)[C@@H](C)/C=C/C=C/C=C/C=C/C=C/C=C/C=C/[C@H](O[C@@H]2O[C@H](C)[C@@H](O)[C@H](N)[C@@H]2O)C[C@@H]2O[C@](O)(C[C@@H](O)C[C@@H](O)[C@H](O)CC[C@@H](O)C[C@@H](O)CC(=O)O[C@H]1C)C[C@H](O)[C@H]2C(=O)O [Amphotericin B],"Docosahexaenoic acid (C22:cis[4,7,10,13,16,19]6), treatment ratio versus control",[4],1.32 *
same,"Docosapentaenoic acid (C22:cis[7,10,13,16,19]5), treatment ratio versus control",[4],1.23 *
same,"Eicosanoic acid (C20:0), treatment ratio versus control",[4],1.18 *
same,"Glycerol, lipid fraction, treatment ratio versus control",[4],1.31 *
same,"Leucine, treatment ratio versus control",[4],1.21 *
same,"Phosphate (inorganic and organic phosphates), treatment ratio versus control",[4],1.25 *
same,"Hippuric acid, treatment ratio versus control",[5],0.44 *
same,"Lactate, treatment ratio versus control",[5],0.68 *

# Reference: patent US20150011423A1, “MEANS AND METHODS FOR ASSESSING KIDNEY TOXICITY” (BASF SE, priority 2011, published 2015)
